Measured values as given in patent US20250011318A1 (ARCUS BIOSCIENCES, INC., priority 2023, published 2025).

Assays:
Cbl-b = molecular target: T1, Cbl-b (Homo sapiens, UniProt Q13191); assay: Cbl-b probe displacement HTRF binding assay; details: 0.4 nM biotinylated Cbl-b, 150 nM BODIPY probe
T1 construct: biotin (biotinylated)
In short: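 Probe-displacement HTRF in Hepes/NaCl/Triton/TCEP/BSA buffer at room temperature: compound dilutions (to 10 μM) incubated 60 min with 0.4 nM biotin-Cbl-b, 150 nM BODIPY probe added for 15 min, Tb-streptavidin read. Signal normalised to DMSO and no-protein controls; IC50 from four-parameter curve.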

Jurkat cells = assay: IL-2 secretion assay in CD3/CD28-activated Jurkat cells (AlphaLISA); type: cell-based, human; details: Homo sapiens, CD3/CD28 T Cell Activator, 24 h, IL-2 AlphaLISA
In short: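 IL-2 release quantified by AlphaLISA in supernatants after 24 h CD3/CD28 activation at 37° C. Compounds, 10 μM to 300 pM final in 1:2 steps, were added to 50,000 Jurkat cells/well 1 h before activation; 4-parameter fit gave EC50.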

T1 sequence (Q13191 whole entry, species assumed): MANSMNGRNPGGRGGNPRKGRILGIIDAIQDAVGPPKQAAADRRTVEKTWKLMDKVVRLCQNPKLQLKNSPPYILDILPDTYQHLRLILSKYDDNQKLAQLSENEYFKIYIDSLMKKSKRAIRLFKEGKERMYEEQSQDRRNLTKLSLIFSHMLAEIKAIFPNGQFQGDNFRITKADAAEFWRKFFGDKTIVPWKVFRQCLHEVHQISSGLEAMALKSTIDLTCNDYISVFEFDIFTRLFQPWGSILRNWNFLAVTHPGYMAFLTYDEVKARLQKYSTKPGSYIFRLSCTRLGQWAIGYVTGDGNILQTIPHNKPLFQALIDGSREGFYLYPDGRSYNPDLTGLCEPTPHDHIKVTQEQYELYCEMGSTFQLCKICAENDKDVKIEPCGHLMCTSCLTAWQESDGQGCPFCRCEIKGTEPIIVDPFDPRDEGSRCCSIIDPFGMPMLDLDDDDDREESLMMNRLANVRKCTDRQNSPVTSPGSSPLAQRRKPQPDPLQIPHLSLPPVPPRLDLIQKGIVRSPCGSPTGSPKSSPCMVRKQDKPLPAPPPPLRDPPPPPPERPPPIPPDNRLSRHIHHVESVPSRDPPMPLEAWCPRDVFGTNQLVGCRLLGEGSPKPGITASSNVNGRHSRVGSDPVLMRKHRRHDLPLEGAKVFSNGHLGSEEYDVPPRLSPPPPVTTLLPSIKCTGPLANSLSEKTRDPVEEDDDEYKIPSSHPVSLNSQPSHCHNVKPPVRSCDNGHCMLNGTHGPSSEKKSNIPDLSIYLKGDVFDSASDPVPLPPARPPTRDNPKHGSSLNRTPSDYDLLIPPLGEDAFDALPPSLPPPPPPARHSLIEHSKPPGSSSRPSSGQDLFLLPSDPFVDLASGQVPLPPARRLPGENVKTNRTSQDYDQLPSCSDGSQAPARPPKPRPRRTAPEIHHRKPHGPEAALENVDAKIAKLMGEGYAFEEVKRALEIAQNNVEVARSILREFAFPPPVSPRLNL

IC50 (Cbl-b)	EC50 (Jurkat cells)	SMILES
< 100 nM	< 100 nM	CCOc1cc(-c2ccc(F)cc2-c2nncn2C)cc(-n2cc(C3CC3)c3cc(CN4CCC[C@H](C)C4)[nH]c3c2=O)n1 [Example 9, 2-{[(S)-3-Methyl-1-piperidyl]methyl}-4-cyclopropyl-6-{6-ethoxy-4-[4-fluoro-2-(4-methyl-4H-1,2,4-triazol-3-yl)phenyl]-2-pyridyl}-1,6-dihydro-1,6-diaza-7-indenone]
< 100 nM	< 100 nM	COCCNCc1cc2c(C3CC3)cn(-c3cc(-c4ccc(F)cc4-c4nc(C#N)cn4C)cc(C4CC4)n3)c(=O)c2[nH]1 [Example 110, 2-[2-[2-cyclopropyl-6-[4-cyclopropyl-2-[(2-methoxyethylamino)methyl]-7-oxo-1H-pyrrolo[2,3-c]pyridin-6-yl]pyridin-4-yl]-5-fluorophenyl]-1-methylimidazole-4-carbonitrile]
< 100 nM	< 100 nM	Cn1cnnc1-c1cc(F)ccc1-c1cc(C2CC2)nc(-n2cc(C(F)(F)F)c3cc(CO)[nH]c3c2=O)c1 [Example 137, 6-[6-cyclopropyl-4-[4-fluoro-2-(4-methyl-1,2,4-triazol-3-yl)phenyl]pyridin-2-yl]-2-(hydroxymethyl)-4-(trifluoromethyl)-1H-pyrrolo[2,3-c]pyridin-7-one]
